How the values were obtained:
Type in all cases: functional
TK-10 = experiment: Cytotoxicity against human TK10 cells assessed as cellular growth at 10 uM by SRB assay
SF-539 = experiment: Cytotoxicity against human SF539 cells assessed as cellular growth at 10 uM by SRB assay
T47D = experiment: Cytotoxicity against human T47D cells assessed as cellular growth at 10 uM by SRB assay
HT-29 = experiment: Cytotoxicity against human HT-29 cells assessed as cellular growth at 10 uM by SRB assay
LOX IMVI = experiment: Cytotoxicity against human LOXIMVI cells assessed as cellular growth at 10 uM by SRB assay
HL-60(TB) = experiment: Cytotoxicity against human HL-60(TB) cells assessed as cellular growth at 10 uM by SRB assay
SNB-19 = experiment: Cytotoxicity against human SNB19 cells assessed as cellular growth at 10 uM by SRB assay
SR = experiment: Cytotoxicity against human SR cells assessed as cellular growth at 10 uM by SRB assay
MCF7 = experiment: Cytotoxicity against human MCF7 cells assessed as cellular growth at 10 uM by SRB assay
NCI-H322M = experiment: Cytotoxicity against human NCI-H322M cells assessed as cellular growth at 10 uM by SRB assay
OVCAR-3 = experiment: Cytotoxicity against human OVCAR3 cells assessed as cellular growth at 10 uM by SRB assay
786-0 = experiment: Cytotoxicity against human 786-0 cells assessed as cellular growth at 10 uM by SRB assay
EKVX = experiment: Cytotoxicity against human EKVX cells assessed as cellular growth at 10 uM by SRB assay
SNB-75 = experiment: Cytotoxicity against human SNB75 cells assessed as cellular growth at 10 uM by SRB assay
UO-31 = experiment: Cytotoxicity against human UO31 cells assessed as cellular growth at 10 uM by SRB assay
ACHN = experiment: Cytotoxicity against human ACHN cells assessed as cellular growth at 10 uM by SRB assay
SK-MEL-28 = experiment: Cytotoxicity against human SK-MEL-28 cells assessed as cellular growth at 10 uM by SRB assay
SF-295 = experiment: Cytotoxicity against human SF295 cells assessed as cellular growth at 10 uM by SRB assay
[1] = Cytotoxicity against human NCI-ADR-RES cells assessed as cellular growth at 10 uM by SRB assay
NCI-H226 = experiment: Cytotoxicity against human NCI-H226 cells assessed as cellular growth at 10 uM by SRB assay

SMILES	Activity (TK-10)	Activity (SF-539)	Activity (T47D)	Activity (HT-29)	Activity (LOX IMVI)	Activity (HL-60(TB))	Activity (SNB-19)	Activity (SR)	Activity (MCF7)	Activity (NCI-H322M)	Activity (OVCAR-3)	Activity (786-0)	Activity (EKVX)	Activity (SNB-75)	Activity (UO-31)	Activity (ACHN)	Activity (SK-MEL-28)	Activity (SF-295)	Activity [1]	Activity (NCI-H226)
Nc1c(C(=O)Nc2ccc(Cl)c(Cl)c2)sc2nc(-c3cccs3)ccc12	87.49%	79.24%	85.21%	87.42%	43.3%	99.11%	95.32%	56.67%	87.77%	95.09%	100.29%	88.45%	93.39%	86.26%	83.99%	99.6%	97.42%	106.17%	75.02%	96.17%
COc1ccc(NC(=O)c2sc3nc4c(cc3c2N)C(=O)CCC4)cc1	103.14%	102.64%	110.7%	108.88%	100.6%	109.37%	116.74%	113.2%	104.14%	57.79%	103.75%	100.45%	102.57%	103.13%	106.6%	105.22%	106.67%	80.98%	103.46%	95.31%
Cc1ccccc1NC(=O)c1sc2nc3c(cc2c1N)C(=O)CCC3	81.15%	27.63%	43.92%	21.08%	47.43%	36.05%	46.1%	34.35%	21.69%	71.39%	4.33%	51.56%	87.53%	13.12%	77.51%	49.27%	52.79%	57.18%	22.58%	65.79%
Cc1ccc(S(=O)(=O)Oc2ccc(-c3cnc4ccccc4n3)cc2)cc1	98.17%	113.49%	87.98%	89.62%	99.82%	109.83%	123.73%	93.66%	98.34%	113.67%	115.17%	96.77%	98.5%	117.79%	109.58%	102.63%	113.2%	89.7%	101.39%	99.19%
O=C(Nc1nc2ccccc2s1)c1ccc(F)cc1	125.36%	101.66%	55.31%	108.47%	100.61%	111.31%	126.08%	98.39%	68.1%	92.49%	103.91%	107.84%	77.77%	96.73%	89.11%	98.03%	113.63%	103.39%	95.74%	92.69%
O=c1/c(=C/c2ccc(Cl)cc2Cl)sc2nc(-c3ccccc3)nn12	106%	121.38%	90.03%	115.55%	95.09%	91.7%	102.51%	94.63%	103.07%	127.05%	116%	103.31%	111.1%	116.38%	114.46%	107.07%	117.34%	118.28%	112.24%	98.92%
Nc1c(C(=O)Nc2ccccc2F)sc2nc3c(cc12)C(=O)CCC3	59.66%	10.48%	40.19%	12.19%	54.2%	3387%	41.11%	36.7%	22.91%	68.76%	16.76%	41.5%	56.31%	13.66%	76%	65.41%	64.11%	3.17%	-4.39%	75.1%

Source: ChEMBL document CHEMBL2202954, “The effect of PLC-γ2 inhibitors on the growth of human tumour cells” (2012)
